Results as given in patent US20230135635A1, “INHIBITORS OF ULK1/2 AND METHODS OF USING SAME” (SALK INSTITUTE FOR BIOLOGICAL STUDIES, priority 2020, published 2023).

What was measured:
[1] = target: T1, recombinant human ULK1 protein (1-649) (Homo sapiens, UniProt O75385); assay: ULK1 inhibition assay (ADP Glo); format: biochemical
T1 construct: recombinant human ULK1 protein (1-649, SignalChem #U01-11G); purchased SignalChem U01-11G
T1 sequence (O75385 1-649): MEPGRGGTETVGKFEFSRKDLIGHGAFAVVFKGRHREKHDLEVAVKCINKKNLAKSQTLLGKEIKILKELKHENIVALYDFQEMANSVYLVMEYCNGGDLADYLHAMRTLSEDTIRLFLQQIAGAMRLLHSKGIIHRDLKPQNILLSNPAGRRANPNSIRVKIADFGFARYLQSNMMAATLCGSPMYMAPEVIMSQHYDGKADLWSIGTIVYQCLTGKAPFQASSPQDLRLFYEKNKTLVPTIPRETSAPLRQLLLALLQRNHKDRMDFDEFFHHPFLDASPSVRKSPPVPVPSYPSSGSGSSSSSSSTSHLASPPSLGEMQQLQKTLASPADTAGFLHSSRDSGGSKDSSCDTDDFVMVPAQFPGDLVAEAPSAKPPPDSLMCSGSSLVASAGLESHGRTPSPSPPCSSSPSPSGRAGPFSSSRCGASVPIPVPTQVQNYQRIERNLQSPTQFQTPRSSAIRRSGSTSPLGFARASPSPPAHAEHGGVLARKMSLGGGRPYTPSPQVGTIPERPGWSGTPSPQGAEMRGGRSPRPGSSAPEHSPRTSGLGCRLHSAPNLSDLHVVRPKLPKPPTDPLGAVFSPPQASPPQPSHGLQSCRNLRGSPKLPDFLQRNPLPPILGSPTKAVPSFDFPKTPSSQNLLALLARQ
In short: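 Recombinant ULK1 (2 ug/mL) phosphorylated myelin basic protein (80 ug/mL) at 25 uM ATP; ADP formed was detected by ADP-Glo after 1 h. Compounds ran in triplicate, 16-dose 3-fold serial dilution from 30 uM, to give IC50.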

NanoLuc®-ULK1 Fusion = target: T2, NanoLuc®-ULK1 Fusion (Homo sapiens, UniProt O75385); assay: ULK1 NanoBRET assay in HEK293T cells; format: cell-based
T2 construct: host or cells: HEK293T
T2 sequence (O75385 1-1050): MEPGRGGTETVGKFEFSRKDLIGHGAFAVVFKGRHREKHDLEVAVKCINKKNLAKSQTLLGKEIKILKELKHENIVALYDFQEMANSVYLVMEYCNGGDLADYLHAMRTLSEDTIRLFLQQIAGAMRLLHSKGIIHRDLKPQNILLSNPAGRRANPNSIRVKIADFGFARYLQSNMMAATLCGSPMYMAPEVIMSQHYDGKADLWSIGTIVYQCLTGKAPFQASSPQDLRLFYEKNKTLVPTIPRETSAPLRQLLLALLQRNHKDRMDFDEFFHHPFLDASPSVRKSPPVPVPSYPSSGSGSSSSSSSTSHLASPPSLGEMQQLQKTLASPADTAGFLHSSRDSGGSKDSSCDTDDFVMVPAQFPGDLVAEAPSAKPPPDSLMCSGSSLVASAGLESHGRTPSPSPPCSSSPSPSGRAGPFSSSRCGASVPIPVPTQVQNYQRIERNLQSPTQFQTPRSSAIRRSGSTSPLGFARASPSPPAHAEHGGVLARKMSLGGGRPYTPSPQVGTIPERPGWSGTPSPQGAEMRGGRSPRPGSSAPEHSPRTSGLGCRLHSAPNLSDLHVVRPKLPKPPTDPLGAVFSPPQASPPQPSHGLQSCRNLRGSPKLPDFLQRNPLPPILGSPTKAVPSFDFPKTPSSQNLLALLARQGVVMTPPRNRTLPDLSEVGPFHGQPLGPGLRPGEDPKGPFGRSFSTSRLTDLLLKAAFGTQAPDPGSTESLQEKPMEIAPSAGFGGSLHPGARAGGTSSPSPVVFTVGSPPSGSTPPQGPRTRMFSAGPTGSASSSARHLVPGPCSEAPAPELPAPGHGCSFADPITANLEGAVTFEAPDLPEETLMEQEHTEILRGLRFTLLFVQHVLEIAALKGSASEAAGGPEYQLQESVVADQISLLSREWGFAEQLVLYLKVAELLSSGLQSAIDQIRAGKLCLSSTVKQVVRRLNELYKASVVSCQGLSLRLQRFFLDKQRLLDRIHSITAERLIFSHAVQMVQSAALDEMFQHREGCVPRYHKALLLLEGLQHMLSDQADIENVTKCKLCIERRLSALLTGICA
Procedure: IC50s were also measured by ULK1 NanoBRET assay according to the following protocol: Human embryonic kidney cells (HEK293T) were transfected with NanoLuc®-ULK1 Fusion Vector (Promega #NV2211) using jetPRIME transfection reagent (Polyplus Transfection #114-15). Following 24 h, cells were trypsinized and resuspended in Opti-MEM® I (1×), Reduced Serum Medium (Gibco, #11058-021). Approximately, 7,000 cells per well (in 34 μL total volume) were replated into non-binding surface 384 well plates. Complete NanoBRET 20× Tracer K-5 reagent was prepared according to the manufacturer's directions and 2 μL were added to each well of the 384 plate (assay plate). The assay plate was mixed on an orbital shaker for 15 seconds at 700 rpm. Compounds were serially diluted at 200× final concentration in 100% DMSO, then diluted to 10× final concentration in assay media (Opti-MEM® I, Reduced Serum Medium). Next, 4 μL 10× test compounds were added to each well of the assay plate, followed by mixing at 700 rpm for 15 seconds. The assay plate was incubated for 2 h in a 37 C incubator with 5% CO2 and then equilibrated to RT for 15 min. The 3× Complete Substrate plus Inhibitor Solution was prepared according to the manufacturer's directions with a concentration of Extracellular NanoLuc® Inhibitor of 60 μM to be used at a working concentration of […]. The 3× Complete Substrate plus Inhibitor Solution was mixed and 20 μL per well was added to the assay plate and incubated at RT for 2-3 min. Donor emission wavelength (450 nm) and acceptor emission wavelength (610 nm) were measured using an assay compatible luminometer (see manufacturer's specifications).

[2] = Table 1, 25 uM ATP, MBP substrate, one hour

| IC50 [1, 2] [nM] | IC50 (NanoLuc®-ULK1 Fusion; Table 1, 2 h incubation) [nM] | IC50 ([1]; Table 3) [nM] | IC50 (NanoLuc®-ULK1 Fusion; Table 3) [nM] | SMILES |
| --- | --- | --- | --- | --- |
| < 1 | < 100 | – | – | CC(=O)N1CCc2cc(Nc3ncc(C(F)(F)F)c(NC4CC4)n3)ccc2C1 [Compound A19] |
| < 1 | < 100 | – | – | O=C(CN1CCc2cc(Nc3ncc(C(F)(F)F)c(NC4CC4)n3)ccc2C1)N1CCOCC1 [Compound A47] |
| < 1 | < 100 | – | – | FC(F)(F)c1cnc(Nc2ccc3c(c2)CCN(Cc2c[nH]cn2)C3)nc1NC1CC1 [Compound A51] |
| < 1 | < 100 | – | – | FC(F)(F)c1cnc(Nc2ccc3c(c2)CNC3)nc1NC1CC1 [Compound A55] |
| 1 to 10 | > 100 | – | – | C#CCC(=O)N1CCc2cc(Nc3ncc(C(F)(F)F)c(NC4CC4)n3)ccc2C1 [Compound A84] |
| 1 to 10 | < 100 | – | – | CNC(=O)c1ccccc1Nc1nc(Nc2ccc3c(c2)CCN(CCOC)C3)ncc1Cl [Compound A117, 2-((5-Chloro-2-((2-(2-methoxyethyl)-1,2,3,4-tetrahydroisoquinolin-6-yl)amino)pyrimidin-4-yl)amino)-N-methylbenzamide] |
| 1 to 10 | < 100 | – | – | CNC(=O)c1ccccc1Nc1nc(Nc2ccc3c(c2)CCN(CCOC)C3)ncc1Br [Compound A118, 2-((5-Bromo-2-((2-(2-methoxyethyl)-1,2,3,4-tetrahydroisoquinolin-6-yl)amino)pyrimidin-4-yl)amino)-N-methylbenzamide] |
| 1 to 10 | < 100 | – | – | CNC(=O)c1ccccc1Nc1nc(Nc2ccc3c(c2)CCN(CCOC)C3)ncc1C(F)(F)F [Compound A119, 2-((2-((2-(2-Methoxyethyl)-1,2,3,4-tetrahydroisoquinolin-6-yl)amino)-5-(trifluoromethyl)pyrimidin-4-yl)amino)-N-methylbenzamide] |
| 1 to 10 | < 100 | – | – | CNC(=O)c1ccccc1Nc1nc(Nc2ccc3c(c2)CCNC3)ncc1C(F)(F)F [Compound A120, N-Methyl-2-((2-((1,2,3,4-tetrahydroisoquinolin-6-yl)amino)-5-(trifluoromethyl)pyrimidin-4-yl)amino)benzamide] |
| 1 to 10 | < 100 | – | – | COCCN1CCc2cc(Nc3ncc(C(F)(F)F)c(NC(C)C)n3)ccc2C1 [Compound A122, N^4-Isopropyl-N^2-(2-(2-methoxyethyl)-1,2,3,4-tetrahydroisoquinolin-6-yl)-5-(trifluoromethyl)pyrimidine-2,4-diamine] |
| – | – | 5 to 100 | > 100 | CNC(=O)c1ccccc1Nc1nc(Nc2ccc3c(c2)OCCO3)ncc1Br [Compound E4, 2-((5-Bromo-2-((2,3-dihydrobenzo[b][1,4]dioxin-6-yl)amino)pyrimidin-4-yl)amino)-N-methylbenzamide] |
| – | – | 5 to 100 | > 100 | CNC(=O)c1ccccc1Nc1nc(Nc2ccc3c(c2)OCO3)ncc1Br [Compound E5, 2-((2-(Benzo[d][1,3]dioxol-5-ylamino)-5-bromopyrimidin-4-yl)amino)-N-methylbenzamide] |
| – | – | – | < 100 | CNC(=O)c1ccccc1Nc1nc(Nc2cc(OC)c(OC)c(OC)c2)ncc1C#N [Compound E9, 2-((5-cyano-2-((3,4,5-trimethoxyphenyl)amino)pyrimidin-4-yl)amino)-N-methylbenzamide] |
| – | – | – | > 100 | CNC(=O)c1ccccc1Nc1nc(Nc2cc(OC)c(OC)c(OC)c2)ncc1C1CC1 [Compound E10, 2-((5-Cyclopropyl-2-((3,4,5-trimethoxyphenyl)amino)pyrimidin-4-yl)amino)-N-methyl-benzamide] |
| – | – | – | > 100 | CNC(=O)c1ccccc1Nc1nc(Nc2cc(OC)c(OC)c(OC)c2)ncc1C [Compound E11, N-Methyl-2-((5-methyl-2-((3,4,5-trimethoxyphenyl)amino)pyrimidin-4-yl)amino)benzamide] |
| – | – | – | > 100 | CNC(=O)c1ccccc1Nc1nc(Nc2cc(OC)c(OC)c(OC)c2)ncc1F [Compound E12, 2-((5-Fluoro-2-((3,4,5-trimethoxyphenyl)amino)pyrimidin-4-yl)amino)-N-methylbenzamide] |
| – | – | – | < 100 | CNC(=O)c1ccccc1Nc1nc(Nc2cc(OC)c(OC)c(OC)c2)ncc1I [Compound E13, 2-((5-iodo-2-((3,4,5-trimethoxyphenyl)amino)pyrimidin-4-yl)amino)-N-methylbenzamide] |
| – | – | 5 to 100 | – | COc1cc(Nc2ncc(Br)c(Nc3ccccc3C(=O)NCC(F)F)n2)cc(OC)c1OC [Compound E22, 2-((5-Bromo-2-((3,4,5-trimethoxyphenyl)amino)pyrimidin-4-yl)amino)-N-(2,2-difluoroethyl)benzamide] |
| – | – | 5 to 100 | – | COc1cc(Nc2ncc(Br)c(Nc3ccccc3C(=O)NCC(F)(F)F)n2)cc(OC)c1OC [Compound E23, 2-((5-Bromo-2-((3,4,5-trimethoxyphenyl)amino)pyrimidin-4-yl)amino)-N-(2,2,2-trifluoroethyl)benzamide] |
| – | – | 5 to 100 | – | CNC(=O)c1ccccc1Nc1nc(Nc2ccc(N3CCNCC3)cc2)ncc1Br [Compound E24, 2-((5-Bromo-2-((4-(piperazin-1-yl)phenyl)amino)pyrimidin-4-yl)amino)-N-methylbenzamide] |
| – | – | 5 to 100 | – | C#CCN1CCN(c2ccc(Nc3ncc(Br)c(Nc4ccccc4C(=O)NC)n3)cc2)CC1 [Compound E25, 2-((5-Bromo-2-((4-(4-(prop-2-yn-1-yl)piperazin-1-yl)phenyl)amino)pyrimidin-4-yl)amino)-N-methylbenzamide] |
| – | – | > 100 | – | CNC(=O)c1cccc(Nc2nc(Nc3cc(OC)c(OC)c(OC)c3)ncc2Br)c1 [Compound E26, 3-((5-Bromo-2-((3,4,5-trimethoxyphenyl)amino)pyrimidin-4-yl)amino)-N-methylbenzamide] |
| – | – | > 100 | – | CNC(=O)c1ccc(Nc2nc(Nc3cc(OC)c(OC)c(OC)c3)ncc2Br)cc1 [Compound E27, 4-((5-Bromo-2-((3,4,5-trimethoxyphenyl)amino)pyrimidin-4-yl)amino)-N-methylbenzamide] |
| – | – | > 100 | – | COc1cc(Nc2ncc(Br)c(Nc3ccc(NC(=O)C4(C(=O)Nc5ccc(F)cc5)CC4)cc3F)n2)cc(OC)c1OC [Compound E28, N-(4-((5-Bromo-2-((3,4,5-trimethoxyphenyl)amino)pyrimidin-4-yl)amino)-3-fluorophenyl)-N-(4-fluorophenyl)cyclopropane-1,1-dicarboxamide] |
